The test system of one assay is C. briggsae. In words: Dosage curve on C. briggsae. Type of assay: in vivo. Conditions: Caenorhabditis briggsae, 120 h; two L4 per well, five days of exposure. From the text:
Supplementary file pntd.0005058.s004.pdf: S4 Fig Dosage curve for effects on C. briggsae of CID 2747322. Two L4 C. briggsae animals were placed into each well of a 96-well pate for five days of exposure to CID 2747322. […] (PDF) Click here for additional data file.

The subject of a further assay is Meloidogyne hapla J2. Nature of the assay: Immobilization of infective second-stage juveniles (J2) of Meloidogyne hapla. Type of assay: in vivo. The method, then:
A laboratory population of the plant-parasitic northern root-knot nematode, Meloidogyne hapla, was initiated by inoculating a tomato seedling growing in a 500 ml pot of 50:50 pasteurized sandy soil:peat with ~100 infective second-stage juveniles (J2) extracted from infested soil from a vineyard in the Okanagan Valley. The population was thereafter reared on tomato under greenhouse conditions. Prior to experimentation, galled roots were removed from heavily infested tomato plants, washed over a sieve with tap water, and then placed on Baermann funnels. J2 hatchings over the first three days were collected and suspended in tap water at a concentration of 100 J2/ml. Replicate 24-well cell culture plates were seeded with 0.2 ml of J2 suspension. Dilutions of CID 2747322 in distilled water were then added to the wells to result in four replicate wells of each of six concentrations in each plate. Concentrations tested spanned 0 to 320 μM and 0 to 160 μM in the two separate runs of the experiment. Nematodes were observed using an inverted microscope at 40X. On each observation date, a transect through each well was observed and J2 within the transect were scored as mobile or immobile. J2 that had taken on a straight posture were scored as immobile. Recently hatched J2 of M. hapla normally move continuously but slowly and always have a curved posture.
Supplementary file pntd.0005058.s005.pdf: S5 Fig Dosage curve for effects on Meloidogyne hapla of CID 2747322. The percentage of immobilization of infective juveniles of Meloidogyne hapla was measure after ten days of exposure to the compound. Data are from two separate trials testing 0–320 and 0–160 μM concentration ranges, respectively, with each point representing the mean of twelve test wells. (PDF) Click here for additional data file.

Assay [1] deals with C. elegans VC3635 (pink-1 gk3615, D19 resistant). Nature of the assay: IC50 on CID 2747322 resistant C. elegans strain VC3635. Type of assay: in vivo, Caenorhabditis elegans. The note with it: Caenorhabditis elegans, 120 h; 5 days exposure, 2 L4 per well, three biological replicates. How it is done:
All compound libraries were stored in 96-well plates, with 80 drugs per plate (columns 1 and 12 left empty). A BioGrid BG600 pinning robot (Digilab / BioRobotics) was used for compound transfer. The robot uses a 96-pin tool (0.7 mm dia.) to transfer a nominal volume of 340 nL of compound. For retesting, compounds were hand pinned from the original library plates to assay plates using a single 0.7 mm dia. pin. The assay plates were 96-well clear flat-bottom microplates containing 2% χ1666 E.coli bacteria in 0.5X Liquid Nematode Growth Media (LNGM) plus cholesterol (Bacteria were mass-grown in rich media, and harvested by centrifugation to produce a thick paste of bacterial cells that was kept frozen at -20°C. Cells were resuspended at 2% W/V in 0.5X LNGM to produce liquid worm food). Using a COPAS Biosort (Union Biometrica), two L4 to young adult stage VC2010 worms were added to each well of the plate in a final volume of 45 μL. After five days of exposure to the compounds, the plates were scanned and the data analyzed. A five day time period was chosen to be able to observe effects over all stages of the life cycle and through at least one round of replication. The initial proof-of-principle primary screen was performed manually using a dissecting microscope. Phenotypes scored included decreased motility, reduced brood size, and/or death as described previously. For high throughput screening of the Chembridge and Maybridge compound libraries we used the program WormScan, which was adapted for screening 96-well flat-bottom LNGM plates. Using WormScan it was possible to screen four 96-well plates at a time. Plates were scanned twice, at a resolution of 1200 dots per inch, 16-bit grayscale, producing a jpeg image. The light intensity produced by the scanner was sufficient to cause negative phototaxis equivalent to a physical stimulus for mortality determination. The time required to scan four 96-well plates using an Epson Perfection V700 Photo Scanner was less than ten minutes. The time to screen a single plate was less than 1.2 minutes, with less than ten seconds between scans.
WormScan was used to screen for the same phenotypes as in the manual screen (reduced brood size, reduced behavior/motility response and increased mortality). Two sequential scans for each 96-well plate were aligned to a reference region of interest (ROI). Image analysis was based on a difference image score calculated for each ROI. The difference image score (WormScan score) was normalized using a “percent of control” method to derive a normalized WormScan score. […] Wild-type growth in 1% DMSO (Fig 1A) results in a normalized WormScan score of 100. Exposure to 50 nM ivermectin gives a score of 0 (Fig 1C), and complete absence of worms gives a score of 0 (Fig 1D). For the primary screen the WormScan score was calculated using custom macro scripts written for Fiji. For secondary screening and any subsequent studies the WormScan score was calculated using a standalone Java program (See supplemental). Probit regression of mortality was calculated using Mathematica 8.0.
A standard ethyl methanesulfonate (EMS) mutagenesis protocol was carried out using VC2010 in order to generate mutants resistant to CID 2747322 exposure. First larval stage (L1) F2 progeny of mutagenized P0s were exposed to CID 2747322 at 200 μM in liquid worm food in 24-well tissue culture plates for five days at room temperature, and two independently isolated resistant lines (VC3614 and VC3615) were identified. […]

The subject of assay [2] is C. elegans CB193 (unc-29(e193), levamisole resistant). Nature of the assay: IC50 on levamisole resistant C. elegans strain. Conditions: Caenorhabditis elegans, 120 h; 5 days exposure, 2 L4 per well, three biological replicates. Type of assay: in vivo, Caenorhabditis elegans.

The values below come from publication PMC5068747, “Using C. elegans Forward and Reverse Genetics to Identify New Compounds with Anthelmintic Activity” (PLoS Neglected Tropical Diseases, 2016).

“And” between values parts separate entries of the source, which are not always exact repeats. Equal values may be shown once.

On to `COc1ccc(OCCNC(=O)c2ccccc2C(F)(F)F)cc1` [CID 2747322, N-[2-(4-methoxyphenoxy)ethyl]-2-(trifluoromethyl)benzamide], for which the concentration for half-maximal inhibition (IC50) in the assay with C. briggsae is 16 µM; with Meloidogyne hapla J2 (Meloidogyne hapla, 240 h, 10 day exposure) it was 129 µM and 44 µg/mL; in assay [1], more than 500 µM; in assay [2] it was 14 µM. The “immobilization of M. hapla J2” value in the assay with Meloidogyne hapla J2 (160 and 320 μM, 24 hours after exposure initiation, increased through day 10) is “Immobilization was observed”. Further, the “survival of M. hapla” value in the assay on Meloidogyne hapla J2 (extended exposure) is recorded as “die after extended exposure”.
